Patent publication US10829473B2, “Modulators of the cystic fibrosis transmembrane conductance regulator protein and methods of use” (AbbVie Overseas S.Á.R.L., priority 2017, dated 2020)
Where two headings read alike, the source gives them in different places. Marks after values point to notes of the source that are not given here.

Target: T1, F508delCFTR (Homo sapiens, UniProt P13569, DEL508-508)
T1 construct: expressed in transfected cells; host or cells: CFBE41o- human lung derived epithelial cells (CFBE41o-F508delCFTR-HRP), doxycycline-inducible
Assay: Cell Surface Expression-Horse Radish Peroxidase (CSE-HRP) Assay;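 for EC50 (with co-corrector): co-corrector chromenyl benzoic acid corrector at 2 or 3 µM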;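 for Maximum % activity (without co-corrector): % of on-plate positive control chromenyl benzoic acid corrector at 2 or 3 µM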
Assay type: cell-based
Conditions: for Maximum % activity (with co-corrector) / Emax: maximum at any tested concentration; for Emax: read-out: Maximum % activity (without co-corrector)
Method in brief: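 Corrector compounds were given as 8-point 3-fold series from 20 or 30 μM, with or without a 2 μM co-corrector, for 18-24 h at 33 °C. Surface HRP was read by luminol luminescence as % of positive control; variable-Hill-slope sigmoidal fitting gave EC50 from triplicate plates.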

[1] = test compound with co-corrector
[2] = test compound with co-corrector, read-out: EC50 (with co-corrector)
[3] = test compound without co-corrector
[4] = test compound without co-corrector, read-out: EC50 (without co-corrector)
[5] = test compound alone, without co-corrector, read-out: EC50 (without co-corrector)
[6] = with co-corrector, read-out: EC50 (with co-corrector)

T1 sequence (P13569 with tags, fused parts or gaps DEL508-508): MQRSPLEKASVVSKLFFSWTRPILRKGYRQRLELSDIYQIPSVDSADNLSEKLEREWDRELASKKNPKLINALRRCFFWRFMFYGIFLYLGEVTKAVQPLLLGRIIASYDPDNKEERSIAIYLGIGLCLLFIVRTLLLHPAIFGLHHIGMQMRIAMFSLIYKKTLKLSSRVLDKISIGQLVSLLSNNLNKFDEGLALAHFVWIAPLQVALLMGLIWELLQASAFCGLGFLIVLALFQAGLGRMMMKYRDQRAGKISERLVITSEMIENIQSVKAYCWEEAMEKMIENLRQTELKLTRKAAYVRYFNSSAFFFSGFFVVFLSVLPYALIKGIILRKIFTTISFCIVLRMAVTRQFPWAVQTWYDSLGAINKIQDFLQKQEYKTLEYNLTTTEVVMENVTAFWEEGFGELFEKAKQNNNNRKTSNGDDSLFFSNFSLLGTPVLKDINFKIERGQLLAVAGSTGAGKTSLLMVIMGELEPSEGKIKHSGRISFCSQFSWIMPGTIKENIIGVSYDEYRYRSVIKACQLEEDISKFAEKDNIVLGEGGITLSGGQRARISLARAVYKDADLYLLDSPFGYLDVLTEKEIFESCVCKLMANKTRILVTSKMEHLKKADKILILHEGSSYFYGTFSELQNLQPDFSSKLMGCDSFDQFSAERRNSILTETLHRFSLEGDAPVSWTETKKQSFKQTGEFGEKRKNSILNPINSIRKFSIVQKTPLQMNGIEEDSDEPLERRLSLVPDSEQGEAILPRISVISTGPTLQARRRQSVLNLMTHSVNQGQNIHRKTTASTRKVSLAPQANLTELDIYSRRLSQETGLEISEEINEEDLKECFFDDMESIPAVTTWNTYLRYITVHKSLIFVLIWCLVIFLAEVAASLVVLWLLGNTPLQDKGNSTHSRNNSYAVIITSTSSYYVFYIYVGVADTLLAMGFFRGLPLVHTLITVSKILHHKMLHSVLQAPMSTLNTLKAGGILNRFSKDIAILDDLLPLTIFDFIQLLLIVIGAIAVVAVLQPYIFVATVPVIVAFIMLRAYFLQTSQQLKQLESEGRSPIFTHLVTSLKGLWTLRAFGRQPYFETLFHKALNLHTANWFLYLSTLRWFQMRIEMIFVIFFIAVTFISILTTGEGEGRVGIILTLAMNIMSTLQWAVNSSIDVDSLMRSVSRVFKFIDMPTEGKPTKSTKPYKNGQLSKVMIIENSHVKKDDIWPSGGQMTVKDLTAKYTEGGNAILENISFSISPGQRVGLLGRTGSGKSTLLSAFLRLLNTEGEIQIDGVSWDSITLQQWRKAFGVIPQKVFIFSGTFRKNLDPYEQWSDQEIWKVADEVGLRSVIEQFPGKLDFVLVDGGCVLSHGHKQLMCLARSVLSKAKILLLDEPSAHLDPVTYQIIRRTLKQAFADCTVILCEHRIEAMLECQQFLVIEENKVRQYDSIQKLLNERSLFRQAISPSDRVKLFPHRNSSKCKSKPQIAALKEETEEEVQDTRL

SMILES | Maximum % activity (with co-corrector) [1] | EC50 [2] [µM] | Emax [3] [%] | EC50 [4] [µM] | EC50 [5] [µM] | Maximum % activity (with co-corrector) (with co-corrector) | EC50 [6] [µM] | Emax (without co-corrector) [%] | EC50 (with co-corrector) [1] | EC50 (without co-corrector) [3]
COc1cc(C2(C(=O)NS(=O)(=O)c3cccc4ncccc34)CC2)c(C)cn1 [GII-13, 1-(2-methoxy-5-methylpyridin-4-yl)-N-(quinoline-5-sulfonyl)cyclopropane-1-carboxamide] | +++ (≥350) | 3 to 10 | 50 to 150 | 3 to 10 |  |  |  |  |  | 
COc1ccc(C2(OC)CCC2)cc1C1(C(=O)NS(=O)(=O)c2cccc3ncccc23)CC1 [Example I-88, 1-[2-methoxy-5-(1-methoxycyclobutyl)phenyl]-N-(quinoline-5-sulfonyl)cyclopropane-1-carboxamide] |  |  |  |  | 3 to 10 | +++ (≥350) | < 3 | > 150 |  | 
Cc1ccc2c(S(=O)(=O)NC(=O)C3(c4cc(OC(C)C)cnc4OC(C)C)CC3)cccc2n1 [Example GI-67, 1-{2,5-bis[(propan-2-yl)oxy]pyridin-3-yl}-N-(2-methylquinoline-5-sulfonyl)cyclopropane-1-carboxamide] | +++ (≥350) | < 3 | > 150 | 3 to 10 |  |  |  |  |  | 
CCOCC(C)(C)c1ccc(OC)c(C2(C(=O)NS(=O)(=O)c3cccc4nc(C)ccc34)CC2)c1 [II-111] |  |  |  |  | < 3 | +++ (≥350) | < 3 | > 150 |  | 
O=C(NS(=O)(=O)c1ccccc1)C1(c2ccccc2)CC1 [Example III-6, N-(benzenesulfonyl)-1-phenylcyclopropane-1-carboxamide] |  |  |  |  | > 10 | ++ (≥150 and <350) | 3 to 10 | < 50 |  | 
COCCOc1ncc(OC)cc1C1(C(=O)NS(=O)(=O)c2cccc3ncccc23)CC1 [GII-44, 1-[5-methoxy-2-(2-methoxyethoxy)pyridin-3-yl]-N-(quinoline-5-sulfonyl)cyclopropane-1-carboxamide] | ++ (≥150 and <350) |  | 50 to 150 |  |  |  |  |  | ++^a | ++^a
COc1ncc(C2CCC2)cc1C1(C(=O)NS(=O)(=O)c2cccc3c2CCCN3)CC1 [Example I-6, 1-(5-cyclobutyl-2-methoxypyridin-3-yl)-N-(1,2,3,4-tetrahydroquinoline-5-sulfonyl)cyclopropane-1-carboxamide] |  |  |  |  | < 3 | +++ (≥350) | < 3 | > 150 |  | 
COc1nc2ccccc2cc1C1(C(=O)NS(=O)(=O)c2cccc3ncccc23)CC1 [Example I-76, 1-(2-methoxyquinolin-3-yl)-N-(quinoline-5-sulfonyl)cyclopropane-1-carboxamide] |  |  |  |  | 3 to 10 | +++ (≥350) | < 3 | > 150 |  | 
COc1ccc(C2(C)COC2)cc1C1(C(=O)NS(=O)(=O)c2cccc3ncccc23)CC1 [II-89] |  |  |  |  | 3 to 10 | +++ (≥350) | 3 to 10 | > 150 |  | 
Cc1ccc(C2(C(=O)NS(=O)(=O)c3ccccc3)CC2)cc1 [Example III-29, N-(benzenesulfonyl)-1-(4-methylphenyl)cyclopropane-1-carboxamide] |  |  |  |  | 3 to 10 | ++ (≥150 and <350) | 3 to 10 | < 50 |  | 
O=C(NS(=O)(=O)c1cccc2ncccc12)C1(c2ccc(C(F)(F)F)nc2C2CC2)CC1 [Example GI-5, 1-[2-cyclopropyl-6-(trifluoromethyl)pyridin-3-yl]-N-(quinoline-5-sulfonyl)cyclopropane-1-carboxamide] |  |  |  |  | 3 to 10 | +++ (≥350) | < 3 | > 150 |  | 
CCc1cnc(OC(C)C)c(C2(C(=O)NS(=O)(=O)c3cccc4[nH]ccc34)CC2)c1 [Example GI-41, 1-{5-ethyl-2-[(propan-2-yl)oxy]pyridin-3-yl}-N-(1H-indole-4-sulfonyl)cyclopropane-1-carboxamide] | +++ (≥350) | < 3 | > 150 | < 3 |  |  |  |  |  | 
COc1cc(F)c(C(C)C)cc1C1(C(=O)NS(=O)(=O)c2cccc3c2CCCN3)CC1 [II-27] |  |  |  |  | < 3 | +++ (≥350) | < 3 | > 150 |  | 
CCc1cnc(N2CCCC2)c(C2(C(=O)NS(=O)(=O)c3cccc4[nH]ccc34)CC2)c1 [Example GI-37, 1-[5-ethyl-2-(pyrrolidin-1-yl)pyridin-3-yl]-N-(1H-indole-4-sulfonyl)cyclopropane-1-carboxamide] | +++ (≥350) | < 3 | > 150 | 3 to 10 |  |  |  |  |  | 
CC(C)COc1ccc(OC(C)C)c(C2(C(=O)NS(=O)(=O)c3cccc4[nH]ccc34)CC2)n1 [Example GI-89, N-(1H-indole-4-sulfonyl)-1-{6-(2-methylpropoxy)-3-[(propan-2-yl)oxy]pyridin-2-yl}cyclopropane-1-carboxamide] | +++ (≥350) | < 3 | > 150 | < 3 |  |  |  |  |  | 
COc1ncc(C2CCC2)c(C)c1C1(C(=O)NS(=O)(=O)c2cccc3c2CCCN3)CC1 [II-38] |  |  |  |  | 3 to 10 | +++ (≥350) | < 3 | > 150 |  | 
COc1ccc(C)c(OC)c1C1(C(=O)NS(=O)(=O)c2cccc3ccccc23)CC1 [Example I-40, 1-(2,6-dimethoxy-3-methylphenyl)-N-(naphthalene-1-sulfonyl)cyclopropane-1-carboxamide] |  |  |  |  | < 3 | +++ (≥350) | < 3 | > 150 |  | 
COCc1ccc(OC)c(C2(C(=O)NS(=O)(=O)c3cccc4ncccc34)CC2)c1 [II-49] |  |  |  |  | < 3 | +++ (≥350) | < 3 | > 150 |  | 
O=C(NS(=O)(=O)c1cccc2ncccc12)C1(c2ccc(C(F)(F)F)nc2C2CCC2)CC1 [GII-14, 1-[2-cyclobutyl-6-(trifluoromethyl)pyridin-3-yl]-N-(quinoline-5-sulfonyl)cyclopropane-1-carboxamide] | +++ (≥350) | 3 to 10 | > 150 | 3 to 10 |  |  |  |  |  | 
CC(C)COc1cnc(Cl)c(C2(C(=O)NS(=O)(=O)c3cccc4ncccc34)CC2)c1 [GIII-5] | ++ (≥150 and <350) |  | < 50 |  |  |  |  |  | ++^a | ++^a
COc1ccc(C(OC)C(F)(F)F)cc1C1(C(=O)NS(=O)(=O)c2cccc3ncccc23)CC1 (stereo not shown) [II-86] |  |  |  |  | 3 to 10 | +++ (≥350) | < 3 | > 150 |  | 
CC(C)COc1ncc(C2CC2)cc1C1(C(=O)NS(=O)(=O)c2cccc3ncccc23)CC1 [Example GI-48, 1-[5-cyclopropyl-2-(2-methylpropoxy)pyridin-3-yl]-N-(quinoline-5-sulfonyl)cyclopropane-1-carboxamide] | +++ (≥350) | < 3 | > 150 | < 3 |  |  |  |  |  | 
